One test has as its target ROCK2 (human) (UniProt O75116). Briefly: Enzyme Assay.
For another test, the target named is CDK2 (human) (UniProt P24941). The test is described as follows: Enzyme Assay.

Sequence of ROCK2 (human) (O75116 whole entry, looked up): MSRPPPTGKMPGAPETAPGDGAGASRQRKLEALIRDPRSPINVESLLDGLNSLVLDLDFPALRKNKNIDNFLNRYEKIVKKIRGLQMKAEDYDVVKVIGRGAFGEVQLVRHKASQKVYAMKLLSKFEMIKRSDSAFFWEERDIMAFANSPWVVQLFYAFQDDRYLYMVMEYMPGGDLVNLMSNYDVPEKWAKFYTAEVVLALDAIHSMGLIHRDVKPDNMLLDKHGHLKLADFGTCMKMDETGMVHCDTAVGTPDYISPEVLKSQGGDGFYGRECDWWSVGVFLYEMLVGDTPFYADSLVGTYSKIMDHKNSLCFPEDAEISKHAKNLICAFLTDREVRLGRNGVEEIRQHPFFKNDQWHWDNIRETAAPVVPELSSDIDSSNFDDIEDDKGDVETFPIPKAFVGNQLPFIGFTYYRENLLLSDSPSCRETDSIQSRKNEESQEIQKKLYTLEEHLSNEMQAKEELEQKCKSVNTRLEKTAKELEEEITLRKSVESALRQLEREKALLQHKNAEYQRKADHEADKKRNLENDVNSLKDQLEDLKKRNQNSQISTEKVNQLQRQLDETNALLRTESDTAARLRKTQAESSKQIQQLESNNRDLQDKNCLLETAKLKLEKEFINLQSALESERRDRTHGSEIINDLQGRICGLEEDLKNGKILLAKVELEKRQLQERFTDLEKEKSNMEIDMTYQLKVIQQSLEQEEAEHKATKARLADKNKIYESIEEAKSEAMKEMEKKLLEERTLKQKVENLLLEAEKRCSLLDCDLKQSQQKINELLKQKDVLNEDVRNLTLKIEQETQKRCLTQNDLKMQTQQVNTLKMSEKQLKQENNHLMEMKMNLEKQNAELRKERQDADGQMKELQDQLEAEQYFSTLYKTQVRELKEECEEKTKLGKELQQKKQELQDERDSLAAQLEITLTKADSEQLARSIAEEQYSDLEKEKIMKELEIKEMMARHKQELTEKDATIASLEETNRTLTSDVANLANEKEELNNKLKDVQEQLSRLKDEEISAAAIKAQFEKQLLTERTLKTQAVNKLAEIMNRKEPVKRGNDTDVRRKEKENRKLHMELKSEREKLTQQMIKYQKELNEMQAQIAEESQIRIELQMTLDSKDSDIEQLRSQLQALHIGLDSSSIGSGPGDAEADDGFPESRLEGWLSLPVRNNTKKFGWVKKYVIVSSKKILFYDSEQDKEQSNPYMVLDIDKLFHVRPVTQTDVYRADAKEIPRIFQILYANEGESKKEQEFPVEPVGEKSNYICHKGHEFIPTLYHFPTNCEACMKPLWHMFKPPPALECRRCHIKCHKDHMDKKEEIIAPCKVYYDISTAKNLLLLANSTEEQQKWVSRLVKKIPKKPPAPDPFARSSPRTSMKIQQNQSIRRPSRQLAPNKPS

What is called Ki is the equilibrium dissociation constant of an inhibitor or competing ligand from its target. Lower therefore signals a stronger hold on the target. For the compound `O=C1Nc2ccccc2Nc2cc(-c3ccncc3F)ccc21`, the Ki at ROCK2 (human) worked out at 126 nM; at CDK2 (human) it was 398 nM.

Consider `CCCCNc1c(-c2ccc3[nH]ncc3c2)nc2ncccn12`, for which the figures for the Ki on ROCK2 (human) and at CDK2 (human) were 63.1 nM and 398 nM, respectively.

Regarding `O=c1cc(-c2ccncc2)nc(NCc2cc(F)cc(F)c2)[nH]1`, the inhibition constant Ki on ROCK2 (human) and at CDK2 (human) was 794 nM throughout.

On to `N#Cc1ccc2[nH]c(O)c(-c3ccc(CN4CCOCC4)cn3)c2c1`, for which the Ki is > 6310 nM on ROCK2 (human) and 1000 nM on CDK2 (human).

At ROCK2 (human), `CCCCC(=O)Nc1cc(-c2c[nH]c3ncccc23)cc(Cl)n1` came in with a Ki of 158 nM.

With `CCCn1c(=O)c2[nH]c(-c3cnn(Cc4cccc(C(F)(F)F)c4)c3)nc2n(CC)c1=O`, the Ki at CDK2 (human) turned out to be 5010 nM.

Regarding `O=c1cc(-c2ccc(F)cc2)[nH]c2c(-c3ccc(F)cc3)cnn12`, the Ki on ROCK2 (human) was > 7940 nM.

With `COCC(C)Nc1cc(-c2c[nH]c3ncccc23)cc(Cl)n1` (stereo not given), the results for the Ki on ROCK2 (human) and at CDK2 (human) were 7.94 nM and 158 nM, respectively.

For the compound `NC(=O)c1cc(-c2ccnc(N)n2)[nH]c1-c1ccc(Cl)cc1Cl`, the Ki at ROCK2 (human) was 316 nM.

As to `Cc1n[nH]c2ccc(-c3cncc(OCCN(C)S(C)(=O)=O)c3)cc12`, the Ki was 100 nM on ROCK2 (human) and 501 nM on CDK2 (human).

As for `Nc1n[nH]c2ccc(-c3cc(Cc4ccccc4)no3)cc12`, the Ki came out at 25.1 nM on ROCK2 (human) and 200 nM on CDK2 (human).

Take `CNCCOc1cncc(-c2ccc3[nH]nc(C)c3c2)c1`: the Ki stood at 20 nM at ROCK2 (human) and 501 nM on CDK2 (human).

On to `CN(C)c1cc(-c2ccncc2)cc2[nH]nc(N)c12`, for which the Ki worked out at 79.4 nM on ROCK2 (human) and 631 nM on CDK2 (human).

The compound `NC(=O)c1ccc2c(ccn2-c2cccc(Cl)c2)c1` gave a Ki at ROCK2 (human) of 2510 nM.

At ROCK2 (human), `Cn1cc(-c2ccccc2)c2nc(-c3ccncc3)cc(=O)n21` gave a Ki of 3160 nM.

Regarding `O=[N+]([O-])c1cccc(-c2nnc3ccc(N4CCCCC4)nn23)c1`, the Ki on ROCK2 (human) is > 7940 nM; on CDK2 (human) it was 631 nM.

In the case of `Cc1ccccc1-c1c(-c2ccc3[nH]nc(C)c3c2)nnn1Cc1ccccc1`, on CDK2 (human), the Ki was determined as 3.98 nM. That is a single-digit nanomolar value.

Take `NC(=O)Cn1cc(-c2cc(-c3cc4ccccc4s3)c3[nH]ncc3c2)c2nc(N)ncc21`: the Ki was 316 nM at ROCK2 (human) and 398 nM on CDK2 (human).

Regarding `OCCCCNc1cc(-c2c[nH]c3ncccc23)cc(Cl)n1`, the Ki at ROCK2 (human) amounted to 15.8 nM; at CDK2 (human), 126 nM.

For `O=C(NCc1ccccc1)c1c[nH]n2c(=O)cc(-c3ccncc3)nc12`, the Ki is > 7940 nM at ROCK2 (human) and 158 nM on CDK2 (human).

`O=c1cc(-c2cccc(F)c2)[nH]c2c(-c3ccc(F)cc3)cnn12`: on ROCK2 (human), the Ki is > 7940 nM.

`NNc1cc(N2CCOCC2)nc(OCCc2ccccn2)n1`: the Ki at ROCK2 (human) was > 5010 nM.

As to `NC(=O)c1ccc(Nc2ncnc3[nH]cc(-c4ccccc4)c23)cc1`, the Ki at ROCK2 (human) came to 251 nM; on CDK2 (human), 501 nM.

In the case of `CCCCNc1cc(-c2ccncc2)cc2[nH]nc(N)c12`, the Ki at ROCK2 (human) stood at 63.1 nM; on CDK2 (human), 200 nM.

Turning to `O=C1Nc2ccccc2Nc2cc(-c3ccncc3Cl)ccc21`, the results for the Ki on ROCK2 (human) and at CDK2 (human) were 631 nM and 501 nM, respectively.

In the case of `c1ccc(Cn2cc(-c3ccc4[nH]nc(-c5ccccc5)c4c3)nn2)cc1`, the inhibition constant (Ki) at ROCK2 (human) was determined as 63.1 nM; at CDK2 (human) it was 100 nM.

Consider `COc1cc2c(cc1F)C(c1ccccc1Cl)=Nc1c(n[nH]c1C)N2`, for which, on ROCK2 (human), the Ki was > 7940 nM.

On to `CCCCCCCCCCCCOc1ccc(NC(=N)N)cc1NC(=N)N`, for which the Ki at ROCK2 (human) was found to be 3160 nM; on CDK2 (human) it was 5010 nM.

On to `Clc1cc(-c2c[nH]c3ncccc23)nc(NC2CCCCC2)n1`, for which the Ki at ROCK2 (human) was found to be 126 nM; on CDK2 (human), 200 nM.

For the compound `CCCCOc1cc(-c2ccncc2)cc2[nH]nc(N)c12`, the values for the inhibition constant (Ki) at ROCK2 (human) and at CDK2 (human) were 126 nM and 1000 nM, respectively.

In the case of `NCCCn1cc(-c2cc(-c3cc4ccccc4s3)c3[nH]ncc3c2)c2nc(N)ncc21`, the Ki on ROCK2 (human) was determined as 63.1 nM; at CDK2 (human), 12.6 nM.

In the case of `NC1CCCCC1Nc1nccc(-c2c[nH]c3ncccc23)n1` (stereo not given), the Ki at CDK2 (human) came to 12.6 nM. This counts as double-digit nanomolar.

For the compound `O=C1NC(=O)C(c2c[nH]c3ccccc23)=C1c1nc(N2CCNCC2)nc2ccccc12`, the Ki at ROCK2 (human) is > 3980 nM.

On CDK2 (human), `O=C1CN=C(c2cccc(Cl)c2)c2c(sc3c2CCCC3)N1` gave an inhibitory constant (Ki) of 7940 nM.

For the compound `Cc1cc(Nc2cc(N3CCN(C)CC3)nc(Sc3ccc(NC(=O)C4CC4)cc3)n2)[nH]n1`, the inhibition constant (Ki) at ROCK2 (human) is > 3980 nM.

Take `O=C(Nc1ccccc1)Nc1nccs1`: the inhibition constant Ki on CDK2 (human) is 20000 nM.

On to `Clc1cc(NC2CCCCC2)nc(-c2c[nH]c3ncccc23)n1`, for which the Ki on ROCK2 (human) was > 316 nM.

For `CCOC(=O)c1c(NC(=O)C2C(C)(C)C2(C)C)sc2cnccc12`, the Ki on CDK2 (human) was 1000 nM.

In turn, `CS(=O)(=O)Nc1ccccc1-c1ccc2c(c1)Nc1ccccc1NC2=O` registered a Ki at CDK2 (human) of 6310 nM.

`Cc1sc2[nH]c(=O)n3nc(-c4ccncc4)nc3c2c1C` returned a Ki at ROCK2 (human) of 3980 nM.

Consider `NC(=O)c1ccc(-c2nc(-c3ccc4c(c3)OCO4)c(-c3ccccn3)[nH]2)cc1`, for which the Ki on ROCK2 (human) was > 3980 nM.

`NC(=O)c1ccccc1Nc1nc(Nc2ccccc2)ncc1C(F)(F)F` came in with a Ki at ROCK2 (human) of 501 nM.

In turn, `CN(c1ccccc1-c1ccc2c(c1)Nc1ccccc1NC2=O)S(C)(=O)=O` had a Ki on CDK2 (human) of 2000 nM.

Take `Oc1ccc(-c2nc(-c3ccc(F)cc3)c(-c3ccncc3)[nH]2)cc1`: on ROCK2 (human), the Ki is > 3980 nM.

These data come from the Kinase Knowledgebase extract (Sharma et al. 2016).
